Measured values taken from US9738902B2, “Modified PYR/PYL receptors activated by ligands” (priority 2013, dated 2017).

Columns and labels:
Experiment in all cases: Y2H Pocket Library Screen (HAB1, X-gal)
Format in all cases: cell-based
[1] = molecular target: T1, PYR1 K59R A160C (Arabidopsis thaliana, UniProt O49686, A160C/K59R)
T1 construct: expressed in transfected cells; host or cells: S. cerevisiae Y190
Method in brief: (§1)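 PYR1 mutant bait plasmids were co-transformed with pACT-HAB1 into yeast Y190 and spotted on selective synthetic dextrose (–Leu/–Trp) agar containing one test compound at 100 μM. After two days at 30° C, colonies were chloroform-lysed and X-gal stained for β-galactosidase reporter expression.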

[2] = molecular target: T2, PYR1 K59R A160N (Arabidopsis thaliana, UniProt O49686, A160N/K59R)
T2 construct: expressed in transfected cells; host or cells: S. cerevisiae Y190
Method in brief: as §1

[3] = molecular target: T3, PYR1 K59R E141F (Arabidopsis thaliana, UniProt O49686, E141F/K59R)
T3 construct: expressed in transfected cells; host or cells: S. cerevisiae Y190 two-hybrid reporter strain
Method in brief: as §1

[4] = molecular target: T4, PYR1 K59R E141H (Arabidopsis thaliana, UniProt O49686, E141H/K59R)
T4 construct: expressed in transfected cells; host or cells: S. cerevisiae Y190 two-hybrid reporter strain
T4 sequence (Q9CAJ0 23-511): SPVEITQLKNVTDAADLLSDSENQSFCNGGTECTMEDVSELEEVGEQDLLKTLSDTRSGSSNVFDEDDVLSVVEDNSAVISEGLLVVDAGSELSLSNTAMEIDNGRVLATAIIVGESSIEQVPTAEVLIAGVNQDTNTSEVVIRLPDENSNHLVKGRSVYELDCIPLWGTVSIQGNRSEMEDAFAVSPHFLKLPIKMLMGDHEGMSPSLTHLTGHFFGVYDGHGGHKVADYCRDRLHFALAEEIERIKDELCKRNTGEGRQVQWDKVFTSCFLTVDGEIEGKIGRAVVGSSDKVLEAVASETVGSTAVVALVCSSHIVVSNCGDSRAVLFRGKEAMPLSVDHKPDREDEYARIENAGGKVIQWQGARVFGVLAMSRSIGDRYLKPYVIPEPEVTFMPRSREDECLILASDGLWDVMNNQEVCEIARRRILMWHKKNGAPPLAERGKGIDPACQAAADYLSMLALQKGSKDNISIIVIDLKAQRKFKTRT
T4 sequence (O49686 whole entry K59R/E141H): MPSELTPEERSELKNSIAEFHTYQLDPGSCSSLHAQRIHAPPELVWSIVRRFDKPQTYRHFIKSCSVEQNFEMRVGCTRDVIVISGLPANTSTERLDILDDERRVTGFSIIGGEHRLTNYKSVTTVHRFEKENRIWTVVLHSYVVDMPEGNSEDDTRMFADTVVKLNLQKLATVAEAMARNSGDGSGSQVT
Method in brief: as §1

[5] = molecular target: T5, PYR1 K59R E141Y (Arabidopsis thaliana, UniProt O49686, E141Y/K59R)
T5 construct: expressed in transfected cells; host or cells: S. cerevisiae Y190 two-hybrid reporter strain
Method in brief: as §1

[6] = molecular target: T6, PYR1 K59R E94D (Arabidopsis thaliana, UniProt O49686, E94D/K59R)
T6 construct: expressed in transfected cells; host or cells: S. cerevisiae Y190 yeast two-hybrid reporter strain
Method in brief: as §1

[7] = molecular target: T7, PYR1 K59R M158G (Arabidopsis thaliana, UniProt O49686, K59R/M158G)
T7 construct: expressed in transfected cells; host or cells: S. cerevisiae Y190 two-hybrid reporter strain
Method in brief: as §1

[8] = molecular target: T8, PYR1 K59R M158T (Arabidopsis thaliana, UniProt O49686, K59R/M158T)
T8 construct: expressed in transfected cells; host or cells: S. cerevisiae Y190 two-hybrid reporter strain
T8 sequence (Q9CAJ0 23-511): as the sequence (Q9CAJ0 23-511) above
T8 sequence (O49686 whole entry K59R/M158T): as the sequence (O49686 whole entry K59R/E141H) above, with H141E, M158T counted along it
Method in brief: as §1

[9] = molecular target: T9, PYR1 K59R N167A (Arabidopsis thaliana, UniProt O49686, K59R/N167A)
T9 construct: expressed in transfected cells; host or cells: S. cerevisiae Y190 two-hybrid reporter strain
Method in brief: as §1

[10] = molecular target: T10, PYR1 K59R N167D (Arabidopsis thaliana, UniProt O49686, K59R/N167D)
T10 construct: expressed in transfected cells; host or cells: S. cerevisiae Y190 two-hybrid reporter strain
Method in brief: as §1

[11] = molecular target: T11, PYR1 K59R N167G (Arabidopsis thaliana, UniProt O49686, K59R/N167G)
T11 construct: expressed in transfected cells; host or cells: S. cerevisiae Y190 two-hybrid reporter strain
Method in brief: as §1

[12] = molecular target: T12, PYR1 K59R N167Q (Arabidopsis thaliana, UniProt O49686, K59R/N167Q)
T12 construct: expressed in transfected cells; host or cells: S. cerevisiae Y190 two-hybrid reporter strain
Method in brief: as §1

[13] = molecular target: T13, PYR1 K59R N167S (Arabidopsis thaliana, UniProt O49686, K59R/N167S)
T13 construct: expressed in transfected cells; host or cells: S. cerevisiae Y190 two-hybrid reporter strain
Method in brief: as §1

[14] = molecular target: T14, PYR1 K59R V164F (Arabidopsis thaliana, UniProt O49686, K59R/V164F)
T14 construct: expressed in transfected cells; host or cells: S. cerevisiae Y190
Method in brief: as §1

[15] = molecular target: T15, PYR1 K59R V164K (Arabidopsis thaliana, UniProt O49686, K59R/V164K)
T15 construct: expressed in transfected cells; host or cells: S. cerevisiae Y190
Method in brief: as §1

[16] = molecular target: T16, PYR1 K59R V164L (Arabidopsis thaliana, UniProt O49686, K59R/V164L)
T16 construct: expressed in transfected cells; host or cells: S. cerevisiae Y190
Method in brief: as §1

[17] = molecular target: T17, PYR1 K59R V164N (Arabidopsis thaliana, UniProt O49686, K59R/V164N)
T17 construct: expressed in transfected cells; host or cells: S. cerevisiae Y190 two-hybrid reporter strain
T17 sequence (O49686 whole entry K59R/V164N): as the sequence (O49686 whole entry K59R/E141H) above, with H141E, V164N counted along it
T17 sequence (Q9CAJ0 23-511 partner): as the sequence (Q9CAJ0 23-511) above
Method in brief: as §1

[18] = molecular target: T18, PYR1 K59R V164Q (Arabidopsis thaliana, UniProt O49686, K59R/V164Q)
T18 construct: expressed in transfected cells; host or cells: S. cerevisiae Y190 two-hybrid reporter strain
Method in brief: as §1

[19] = molecular target: T19, PYR1 K59R A89W (Arabidopsis thaliana, UniProt O49686, A89W/K59R)
T19 construct: expressed in transfected cells; host or cells: S. cerevisiae Y190 yeast two-hybrid reporter strain
Method in brief: as §1

[20] = molecular target: T20, PYR1 K59R F108A (Arabidopsis thaliana, UniProt O49686, F108A/K59R)
T20 construct: expressed in transfected cells; host or cells: S. cerevisiae Y190 yeast two-hybrid reporter strain
Method in brief: as §1

[21] = molecular target: T21, PYR1 K59R F108C (Arabidopsis thaliana, UniProt O49686, F108C/K59R)
T21 construct: expressed in transfected cells; host or cells: S. cerevisiae Y190 yeast two-hybrid reporter strain
Method in brief: as §1

[22] = molecular target: T22, PYR1 K59R F108L (Arabidopsis thaliana, UniProt O49686, F108L/K59R)
T22 construct: expressed in transfected cells; host or cells: S. cerevisiae Y190 yeast two-hybrid reporter strain
Method in brief: as §1

[23] = molecular target: T23, PYR1 K59R F108N (Arabidopsis thaliana, UniProt O49686, F108N/K59R)
T23 construct: expressed in transfected cells; host or cells: S. cerevisiae Y190 yeast two-hybrid reporter strain
T23 sequence (O49686 whole entry K59R/F108N): as the sequence (O49686 whole entry K59R/E141H) above, with F108N, H141E counted along it
T23 sequence (Q9CAJ0 23-511 partner): as the sequence (Q9CAJ0 23-511) above
Method in brief: as §1

[24] = molecular target: T24, PYR1 K59R F108S (Arabidopsis thaliana, UniProt O49686, F108S/K59R)
T24 construct: expressed in transfected cells; host or cells: S. cerevisiae Y190 yeast two-hybrid reporter strain
Method in brief: as §1

[25] = molecular target: T25, PYR1 K59R F108T (Arabidopsis thaliana, UniProt O49686, F108T/K59R)
T25 construct: expressed in transfected cells; host or cells: S. cerevisiae Y190 yeast two-hybrid reporter strain
Method in brief: as §1

[26] = molecular target: T26, PYR1 K59R F159C (Arabidopsis thaliana, UniProt O49686, F159C/K59R)
T26 construct: expressed in transfected cells; host or cells: S. cerevisiae Y190 two-hybrid reporter strain
T26 sequence (Q9CAJ0 23-511): as above
T26 sequence (O49686 whole entry K59R/F159C): as the sequence (O49686 whole entry K59R/E141H) above, with H141E, F159C counted along it
Method in brief: as §1

[27] = molecular target: T27, PYR1 K59R F159T (Arabidopsis thaliana, UniProt O49686, F159T/K59R)
T27 construct: expressed in transfected cells; host or cells: S. cerevisiae Y190
T27 sequence (Q9CAJ0 23-511): as the sequence (Q9CAJ0 23-511) above
T27 sequence (O49686 whole entry K59R/F159T): as the sequence (O49686 whole entry K59R/E141H) above, with H141E, F159T counted along it
Method in brief: as §1

[28] = molecular target: T28, PYR1 K59R S122G (Arabidopsis thaliana, UniProt O49686, K59R/S122G)
T28 construct: expressed in transfected cells; host or cells: S. cerevisiae Y190 two-hybrid reporter strain
T28 sequence (O49686 whole entry K59R/S122G): as the sequence (O49686 whole entry K59R/E141H) above, with S122G, H141E counted along it
T28 sequence (Q9CAJ0 23-511 partner): as the sequence (Q9CAJ0 23-511) above
Method in brief: as §1

Measured: Threshold

N#Cc1c(Cl)cccc1Cl [Dichlobenil, dichlobenil]
not listed: [19] | [20] | [21] | [22] | [23] | [24] | [25] | [26] | [27] | [28]
100 µM: all other assays above

C#CCOc1ccc(CCNC(=O)C(OCC#C)c2ccc(Cl)cc2)cc1OC (stereo not shown) [Mandipropamid, mandipropamid]
100 µM: [19] | [20] | [21] | [22] | [23] | [24] | [25] | [26] | [27] | [28]
